Laboratory results published in patent US7829665B2 (priority 2005, dated 2010).
pEC50, pIC50: −log10 of the molar value. Read-outs that look alike come from different tables or passages of the source.

How the values were obtained:
[1] = molecular target: T1, full-length NS3/NS4A-2 (HCV NS3 protease) (Hepatitis C virus genotype 1a, UniProt P27958); test: NS3-NS4 protease assay / NS3 inhibition assay (RETS1 substrate, fluorescence kinetic read); assay type: biochemical
T1 construct: Recombinant E. coli or Baculovirus full-length NS3 was diluted to 3.33 μM with assay buffer; made in house; host or cells: E. coli or baculovirus (BV) expression system
Summary of the method: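 Ki values come from IC50 fits corrected via Ki=IC50/(1+[S]/Km), with Km 2.03 μM for E. coli and 1.74 μM for baculovirus full-length NS3. Enzyme (2 or 3 nM NS3, respectively, complexed with NS4A-2) sat with compound, top concentration 50 microM, for 10 min at room temperature. Cleavage of RETS1 (8 μM working solution) was then followed by fluorescence (335/495 nm) over 30 min.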

[2] = test system: HCV sub-genomic replicon in GS4.3 cells (HuH-7 hepatoma cells); test: Quantitation by ELISA of Neomycin phosphotransferase II (NPTII) in the HCV sub-genomic replicon, GS4.3; assay type: cell-based, hepatitis C virus; conditions: Hepatitis C virus, Huh-7; GS4.3 cells, 72 h incubation, NPTII ELISA; read-out: Replicon EC50
Protocol: The HCV sub-genomic replicon (1377/NS3-3′, accession No. AJ242652), stably maintained in HuH-7 hepatoma cells, was created by Lohmann et al. Science 285: 110-113 (1999). The replicon-containing cell culture, designated GS4.3, was obtained from Dr. Christoph Seeger of the Institute for Cancer Research, Fox Chase Cancer Center, Philadelphia, Pa.
GS4.3 cells were maintained at 37° C., 5% CO2, in DMEM (Gibco 11965-092) supplemented with L-glutamine 200 mM (100×) (Gibco25030-081), non-essential amino acids (NEAA) (Biowhittaker 13-114E), heat-inactivated (HI) Fetal Bovine Serum (FBS) (Hyclone SH3007.03) and 750 μg/ml geneticin (G418) (Gibco 10131-035). Cells were sub-divided 1:3 or 4 every 2-3 days.
24 h prior to the assay, GS4.3 cells were collected, counted, and plated in 96-well plates (Costar 3585) at 7500 cells/well in 100 μl standard maintenance medium (above) and incubated in the conditions above. To initiate the assay, culture medium was removed, cells were washed once with PBS (Gibco 10010-023) and 90 μl Assay Medium (DMEM, L-glutamine, NEAA, 10% HI FBS, no G418) was added. Inhibitors were made as a 10× stock in Assay Medium, (3-fold dilutions from 10 μM to 56 pM final concentration, final DMSO concentration 1%), 10 μl were added to duplicate wells, plates were rocked to mix, and incubated as above for 72 h.
An NPTII Elisa kit was obtained from AGDIA, Inc. (Compound direct ELISA test system for Neomycin Phosphotransferase II, PSP 73000/4800). Manufacturer's instructions were followed, with some modifications. 10×PEB-1 lysis buffer was made up to include 500 μM PMSF (Sigma P7626, 50 mM stock in isopropanol). After 72 h incubation, cells were washed once with PBS and 150 μl PEB-1 with PMSF was added per well. Plates were agitated vigorously for 15 minutes, room temperature, then frozen at −70° C. Plates were thawed, lysates were mixed thoroughly, and 100 μl were applied to an NPTII Elisa plate. A standard curve was made. Lysate from DMSO-treated control cells was pooled, serially diluted with PEB-1 with PMSF, and applied to duplicate wells of the ELISA plate, in a range of initial lysate amount of 150 ul-2.5 ul. In addition, 100 μl buffer alone was applied in duplicate as a blank. Plates were sealed and gently agitated at room temperature for 2 h. Following capture incubation, the plates were washed 5×300 μl with PBS-T (0.5% Tween-20, PBS-T was supplied in the ELISA kit). For detection, a 1× dilution of enzyme conjugate diluent MRS-2 (5×) was made in PBS-T, into which 1:100 dilutions of enzyme conjugates A and B were added, as per instructions. Plates were resealed, and incubated with agitation, covered, room temperature, for 2 h. The washing was then repeated and 100 μl of room temperature TMB substrate was added. After approximately 30 minutes incubation (room temperature, agitation, covered), the reaction was stopped with 50 μl 3M sulfuric acid. Plates were read at 450 nm on a Molecular Devices Versamax plate reader.
Inhibitor effect was expressed as a percentage of DMSO-treated control signal, and inhibition curves were calculated using a 4-parameter equation: y=A+((B−A)/(1+((C/x)^D))), where C is half-maximal activity or EC50.

[3] = recombinant E. coli or Baculovirus full-length NS3 with NS4A-2, read-out: NS3-NS4 IC50

T1 sequence (P27958 1027-1657): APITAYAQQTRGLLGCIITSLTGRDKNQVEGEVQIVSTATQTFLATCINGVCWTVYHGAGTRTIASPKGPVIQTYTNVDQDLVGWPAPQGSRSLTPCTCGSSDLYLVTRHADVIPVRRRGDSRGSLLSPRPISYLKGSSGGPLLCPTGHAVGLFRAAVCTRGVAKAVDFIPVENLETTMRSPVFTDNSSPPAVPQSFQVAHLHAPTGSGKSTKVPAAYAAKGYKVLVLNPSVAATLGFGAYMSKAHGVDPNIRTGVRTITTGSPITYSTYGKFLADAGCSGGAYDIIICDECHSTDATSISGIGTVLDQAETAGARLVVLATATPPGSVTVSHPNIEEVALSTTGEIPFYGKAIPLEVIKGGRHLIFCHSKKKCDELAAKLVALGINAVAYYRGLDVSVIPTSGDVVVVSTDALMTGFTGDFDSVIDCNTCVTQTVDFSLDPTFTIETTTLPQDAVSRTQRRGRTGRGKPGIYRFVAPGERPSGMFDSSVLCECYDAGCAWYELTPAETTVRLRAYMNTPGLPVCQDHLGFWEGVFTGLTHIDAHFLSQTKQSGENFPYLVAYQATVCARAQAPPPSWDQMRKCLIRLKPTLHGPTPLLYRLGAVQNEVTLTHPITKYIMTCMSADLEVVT

SMILES	pIC50 [1, 3]	pEC50 [2]	pIC50 [1]
CN(C)C(=S)N[C@H]1CCCCC/C=C\[C@@H]2C[C@@]2(C(=O)NS(=O)(=O)C2CC2)NC(=O)[C@@H]2C[C@@H](OC(=O)N3Cc4cccc(F)c4C3)CN2C1=O [Compound 922]	> 7.00	> 6.00	
O=C1N[C@]2(C(=O)NCC3CC3)C[C@H]2/C=C\CCCCC[C@H](Nc2c(N3CCC3)c(=O)c2=O)C(=O)N2C[C@H](OC(=O)N3Cc4cccc(F)c4C3)C[C@@H]12 [Compound 647]	> 7.00	> 5.00	
CC(C)(O)C(=O)N[C@H]1CCCCC/C=C\[C@@H]2C[C@@]2(C(=O)NS(=O)(=O)C2CC2)NC(=O)[C@@H]2C[C@@H](OC(=O)N3Cc4cccc(F)c4C3)CN2C1=O [Compound 246]	> 7.00	> 6.00	
N[C@H]1CCCCC/C=C\[C@@H]2C[C@@]2(C(=O)NS(=O)(=O)N2CCC(F)(F)C2)NC(=O)[C@@H]2C[C@@H](OC(=O)N3Cc4cccc(Cl)c4C3)CN2C1=O [Compound 222]		> 5.00	> 7.00
O=C(CCC(F)(F)F)N[C@H]1CCCCC/C=C\[C@@H]2C[C@@]2(C(=O)O)NC(=O)[C@@H]2C[C@@H](OC(=O)N3Cc4cccc(F)c4C3)CN2C1=O [Compound 135]	> 7.00	> 5.00	
CC(C)(C)OC(=O)N[C@H]1CCC(F)(F)CC/C=C\[C@@H]2C[C@@]2(C(=O)O)NC(=O)[C@@H]2C[C@@H](OC(=O)N3CCc4ccccc4C3)CN2C1=O [Compound 1013]	> 7.00	> 7.00	
O=C(N[C@H]1CCCCC/C=C\[C@@H]2C[C@@]2(C(=O)NS(=O)(=O)N2CC(F)(F)C2)NC(=O)C2C[C@@H](OC(=O)N3Cc4cccc(Cl)c4C3)CN2C1=O)OC1CCCC1 (stereo partly shown) [Compound 228]	> 7.00	> 7.00	
CN(C)S(=O)(=O)NC(=O)[C@@]12C[C@H]1CCCCC(F)(F)CC[C@H](NC(=O)OC(C)(C)C)C(=O)N1C[C@H](OC(=O)N3Cc4cccc(F)c4C3)C[C@H]1C(=O)N2 [Compound 1016]	> 7.00	> 7.00	
CC(C)OC(=O)N[C@H]1CCC(F)(F)CC/C=C\[C@@H]2C[C@@]2(C(=O)NS(=O)(=O)C2CC2)NC(=O)[C@@H]2C[C@@H](OC(=O)N3Cc4ccccc4C3)CN2C1=O [Compound 1012]	> 7.00	> 7.00	
CC(C)(C)OC(=O)N[C@H]1CCCCC/C=C\[C@@H]2C[C@@]2(C(=O)NS(=O)(=O)NC2CCCC2)NC(=O)[C@@H]2C[C@@H](OC(=O)N3Cc4cccc(Cl)c4C3)CN2C1=O [Compound 212]	> 7.00	> 6.00	
CC(C)(C)OC(=O)N[C@H]1CCCCC/C=C\[C@@H]2C[C@@]2(C(=O)O)NC(=O)[C@@H]2C[C@@H](OC(=O)N3Cc4ccc(OCCn5cccn5)cc4C3)CN2C1=O [Compound 130]	> 7.00	> 5.00	
CC(C)(C)OC(=O)N[C@H]1CCOCC/C=C\[C@@H]2C[C@@]2(C(=O)NS(=O)(=O)C2CC2)NC(=O)[C@@H]2C[C@@H](OC(=O)N3Cc4cccc(F)c4C3)CN2C1=O [Compound 1027, (2R,6S,13aS,14aR,16aS,Z)-6-(tert-butoxycarbonylamino)-14a-(cyclopropylsulfonylcarbamoyl)-5,16-dioxo-2,3,5,6,7,8,10,11,13a,14,14a,15,16,16a-tetradecahydro-1H-cyclopropa(j)pyrrolo[1,2-f][1,6,9]oxadiazacyclopentadecin-2-yl 4-fluoroisoindoline-2-carboxylate]		> 7.00	> 7.00
CN(C)S(=O)(=O)NC(=O)[C@@]12C[C@H]1/C=C\CCCCC[C@H](N)C(=O)N1C[C@H](OC(=O)N3Cc4ccccc4C3)C[C@H]1C(=O)N2 [Compound 202]	> 7.00	> 5.00	
CC(C)(C)OC(=O)N[C@H]1CCCCC/C=C\[C@@H]2C[C@@]2(C(=O)NS(=O)(=O)C2CC2)NC(=O)C2Cc3cc(Oc4cccc(Cl)c4)ccc3CN2C1=O (stereo partly drawn) [Compound 2007, tert-Butyl (1aS,9S,19aR,Z)-15-(3-chlorophenoxy)-19a-(cyclopropylsulfonylcarbamoyl)-10,18-dioxo-1a,4,5,6,7,8,9,10,12,17,17a,18,19,19a-tetradecahydro-1H-11,14-diaza-bicyclo[13.1.0]hexadeca-1(15), 2-dieno[11,12-b]isoquinolin-9-ylcarbamate]	> 6.00	> 5.00	
O=C(N[C@H]1CCCCC/C=C\[C@@H]2C[C@@]2(C(=O)O)NC(=O)[C@@H]2C[C@@H](OC(=O)N3Cc4cccc(F)c4C3)CN2C1=O)C1CCC1 [Compound 122]	> 7.00	> 5.00	
O=C1N[C@]2(C(=O)NS(=O)(=O)C3CC3)C[C@H]2/C=C\CCCCC[C@H](N(CC2CC2)CC2CC2)C(=O)N2C[C@H](OC(=O)N3Cc4cccc(F)c4C3)C[C@@H]12 [Compound 911]	> 6.00	> 5.00	
N[C@H]1CCCCC/C=C\[C@@H]2C[C@@]2(C(=O)NS(=O)(=O)N2CCCC2)NC(=O)[C@@H]2C[C@@H](OC(=O)N3Cc4cccc(Cl)c4C3)CN2C1=O [Compound 220]		> 6.00	> 7.00
CC(C)NS(=O)(=O)NC(=O)[C@@]12C[C@H]1/C=C\CCCCC[C@H](NC(=O)OC1CCCC1)C(=O)N1C[C@H](OC(=O)N3Cc4cccc(F)c4C3)C[C@H]1C(=O)N2 [Compound 218]	> 7.00	> 7.00	
O=C1N[C@]2(C(=O)NS(=O)(=O)C3CC3)C[C@H]2/C=C\CCCCC[C@H](NC(=S)N2CCCC2)C(=O)N2C[C@H](OC(=O)N3Cc4cccc(F)c4C3)C[C@@H]12 [Compound 244]	> 7.00	> 7.00	
CC(=O)N[C@H](C(=O)N[C@H]1CCCCC/C=C\[C@@H]2C[C@@]2(C(=O)NS(=O)(=O)C2CC2)NC(=O)[C@@H]2C[C@@H](OC(=O)N3Cc4cccc(Cl)c4C3)CN2C1=O)C1CCCCC1 [Compound 262]	> 7.00	> 6.00	
O=C1N[C@]2(C(=O)NS(=O)(=O)C3CC3)C[C@H]2/C=C\CCCCC[C@H](Nc2nccs2)C(=O)N2C[C@H](OC(=O)N3Cc4cccc(F)c4C3)C[C@@H]12 [Compound 924]	> 7.00	> 7.00	
O=C(N[C@H]1CCCCC/C=C\[C@@H]2C[C@@]2(C(=O)NS(=O)(=O)NCC2CC2)NC(=O)[C@@H]2C[C@@H](OC(=O)N3Cc4cccc(F)c4C3)CN2C1=O)OC1CCCC1 [Compound 205]	> 7.00	> 6.00	
CC(C)(C)OC(=O)N[C@H]1CCCCC/C=C\[C@@H]2C[C@@]2(C(=O)NS(=O)(=O)N2CCOCC2)NC(=O)[C@@H]2C[C@@H](OC(=O)N3Cc4cccc(Cl)c4C3)CN2C1=O [Compound 207]	> 7.00	> 7.00	
CN(C)C(=S)NC(=O)[C@@]12C[C@H]1/C=C\CCCCC[C@H](NC(=O)OC(C)(C)C)C(=O)N1C[C@H](OC(=O)N3Cc4cccc(F)c4C3)C[C@H]1C(=O)N2 [Compound 236]	> 7.00	> 7.00	
CC(C)(C)OC(=O)N[C@H]1CCCCC/C=C\[C@@H]2C[C@@]2(C(=O)NS(=O)(=O)N2CCC(F)(F)C2)NC(=O)[C@@H]2C[C@@H](OC(=O)N3Cc4cccc(Cl)c4C3)CN2C1=O [Compound 211]	> 7.00	> 7.00	
N#CNC(=O)[C@@]12C[C@H]1/C=C\CCCCC[C@H](NC(=O)CCC(F)(F)F)C(=O)N1C[C@H](OC(=O)N3Cc4cccc(F)c4C3)CC1C(=O)N2 (stereo partly shown) [Compound 642]	> 6.00	< 5.00	
